{"source": "paper PMC11944884", "about": "“Bioactive Secondary Metabolites of Two Chinese Edible Boletes, Phlebopus portentosus and Butyriboletus roseoflavus” (Molecules, 2025)", "key": {"BEL7402": {"test_system": "BEL7402", "assay": "Cytotoxicity CCK-8 assay, BEL7402", "type": "cell-based", "conditions": "Homo sapiens, Bel-7402"}, "PC-3": {"test_system": "PC-3", "assay": "Cytotoxicity CCK-8 assay, PC-3", "type": "cell-based", "conditions": "Homo sapiens"}, "SGC7901": {"test_system": "SGC7901", "assay": "Cytotoxicity CCK-8 assay, SGC7901", "type": "cell-based", "conditions": "Homo sapiens, SGC-7901"}, "MCF-7/ADR": {"test_system": "MCF-7/ADR", "assay": "Cytotoxicity CCK-8 assay, MCF-7/ADR", "type": "cell-based", "conditions": "Homo sapiens, NCI/ADR-RES"}, "Hela229": {"test_system": "Hela229", "assay": "Cytotoxicity CCK-8 assay, Hela229", "type": "cell-based", "conditions": "Homo sapiens, HeLa 229"}, "SH-SY5Y cells [1]": {"test_system": "SH-SY5Y cells", "assay": "Neuroprotection against Aβ25−35-induced neurotoxicity (MTT)", "conditions": "Homo sapiens, SH-SY5Y, read-out: Cell viability (% of control group)", "description": "The cells, obtained from the American Type Culture Collection (ATCC, Manassas, VA, USA) at high passages, maintained at 37 °C in a humidified atmosphere containing 5% CO2. Cells were seeded into 96-well plates at a density of 2 × 10^5 cells/mL in MEM/F12 medium supplemented with 10% (v/v) fetal bovine serum. Experiments were carried out after 24 h of seeding. Test compounds and positive control (epigallocatechin-3-gallate, EGCG; NAC) were made to 10^−2 M stock solutions with DMSO and then diluted to corresponding concentrations with cell culture medium. Cells were incubated with test compounds or EGCG (10 μM, Sigma, St. Louis, MO, USA, purity > 98%)/NAC for 2 h, followed by exposure to 80 μM H2O2 or 10 μM Aβ25−35 for another 24 h without medium replacement. After treatment, 10 μL of MTT (5 mg/mL) was added to each well and incubated at 37 °C for 3 h. The cells were finally lysed with 100% DMSO, and the absorbance of MTT formazan was measured at 490 nm using a microplate reader."}, "SH-SY5Y cells [2]": {"test_system": "SH-SY5Y cells", "assay": "Neuroprotection against H2O2-induced neurotoxicity (MTT)", "type": "cell-based", "conditions": "Homo sapiens, SH-SY5Y, read-out: Cell viability (% of control group)"}, "influenza virus A/H3N2": {"test_system": "influenza virus A/H3N2", "assay": "microbe, parasite or virus in culture", "type": "cell-based, influenza virus A (H3N2 strain)", "conditions": "for EC50: MDCK"}, "[3]": {"test_system": "A/H3N2 and B/Victoria strains", "assay": "microbe, parasite or virus in culture", "type": "cell-based", "conditions": "Influenza A virus, range over compounds 22 and 26 and both strains"}, "[4]": {"test_system": "influenza virus B/Victoria strain", "assay": "microbe, parasite or virus in culture", "type": "cell-based", "conditions": "MDCK"}, "[5]": {"conditions": "Influenza A virus, H3N2, MDCK, read-out: CPE inhibition"}}, "data": [{"smiles": "O=C1NCCc2c1[nH]c1ccccc21", "note": "[Compound 9, 1,2,3,4-tetrahydro-1-oxo-β-carboline]", "values": [{"measurement": "IC50", "setting": "BEL7402; BEL7402", "result": 41.5, "unit": "µM"}, {"measurement": "inhibition at 6.25 µM", "setting": "BEL7402; BEL7402, 6.25 μM, 48 h, read-out: Cell proliferation inhibition (%)", "result": 12.5, "unit": "%"}, {"measurement": "inhibition at 12.5 µM", "setting": "BEL7402; BEL7402, 12.5 μM, 48 h, read-out: Cell proliferation inhibition (%)", "result": 24.4, "unit": "%"}, {"measurement": "inhibition at 25 µM", "setting": "BEL7402; BEL7402, 25 μM, 48 h, read-out: Cell proliferation inhibition (%)", "result": 44.4, "unit": "%"}, {"measurement": "inhibition at 50 µM", "setting": "BEL7402; BEL7402, 50 μM, 48 h, read-out: Cell proliferation inhibition (%)", "result": 56.4, "unit": "%"}, {"measurement": "inhibition at 100 µM", "setting": "BEL7402; BEL7402, 100 μM, 48 h, read-out: Cell proliferation inhibition (%)", "result": 63.6, "unit": "%"}, {"measurement": "IC50", "setting": "PC-3; PC-3", "result": "> 50", "unit": "µM"}, {"measurement": "inhibition at 6.25 µM", "setting": "PC-3; PC-3, 6.25 μM, 48 h, read-out: Cell proliferation inhibition (%)", "result": 3, "unit": "%"}, {"measurement": "inhibition at 12.5 µM", "setting": "PC-3; PC-3, 12.5 μM, 48 h, read-out: Cell proliferation inhibition (%)", "result": 1.7, "unit": "%"}, {"measurement": "inhibition at 25 µM", "setting": "PC-3; PC-3, 25 μM, 48 h, read-out: Cell proliferation inhibition (%)", "result": 4, "unit": "%"}, {"measurement": "inhibition at 50 µM", "setting": "PC-3; PC-3, 50 μM, 48 h, read-out: Cell proliferation inhibition (%)", "result": 2.6, "unit": "%"}, {"measurement": "inhibition at 100 µM", "setting": "PC-3; PC-3, 100 μM, 48 h, read-out: Cell proliferation inhibition (%)", "result": 14, "unit": "%"}, {"measurement": "IC50", "setting": "SGC7901; SGC7901", "result": "> 50", "unit": "µM"}, {"measurement": "inhibition at 6.25 µM", "setting": "SGC7901; SGC7901, 6.25 μM, 48 h, read-out: Cell proliferation inhibition (%)", "result": 13.2, "unit": "%"}, {"measurement": "inhibition at 12.5 µM", "setting": "SGC7901; SGC7901, 12.5 μM, 48 h, read-out: Cell proliferation inhibition (%)", "result": 17.5, "unit": "%"}, {"measurement": "inhibition at 25 µM", "setting": "SGC7901; SGC7901, 25 μM, 48 h, read-out: Cell proliferation inhibition (%)", "result": 27.1, "unit": "%"}, {"measurement": "inhibition at 50 µM", "setting": "SGC7901; SGC7901, 50 μM, 48 h, read-out: Cell proliferation inhibition (%)", "result": 37.4, "unit": "%"}, {"measurement": "inhibition at 100 µM", "setting": "SGC7901; SGC7901, 100 μM, 48 h, read-out: Cell proliferation inhibition (%)", "result": 44.3, "unit": "%"}, {"measurement": "IC50", "setting": "MCF-7/ADR", "result": "> 50", "unit": "µM"}, {"measurement": "inhibition at 6.25 µM", "setting": "MCF-7/ADR; 6.25 μM, 48 h, read-out: Cell proliferation inhibition (%)", "result": -0.9, "unit": "%"}, {"measurement": "inhibition at 12.5 µM", "setting": "MCF-7/ADR; 12.5 μM, 48 h, read-out: Cell proliferation inhibition (%)", "result": 1.7, "unit": "%"}, {"measurement": "inhibition at 25 µM", "setting": "MCF-7/ADR; 25 μM, 48 h, read-out: Cell proliferation inhibition (%)", "result": 3.4, "unit": "%"}, {"measurement": "inhibition at 50 µM", "setting": "MCF-7/ADR; 50 μM, 48 h, read-out: Cell proliferation inhibition (%)", "result": 2.9, "unit": "%"}, {"measurement": "inhibition at 100 µM", "setting": "MCF-7/ADR; 100 μM, 48 h, read-out: Cell proliferation inhibition (%)", "result": 2.5, "unit": "%"}, {"measurement": "IC50", "setting": "Hela229; Hela229", "result": 10.8, "unit": "µM"}, {"measurement": "inhibition at 6.25 µM", "setting": "Hela229; Hela229, 6.25 μM, 48 h, read-out: Cell proliferation inhibition (%)", "result": 37.1, "unit": "%"}, {"measurement": "inhibition at 12.5 µM", "setting": "Hela229; Hela229, 12.5 μM, 48 h, read-out: Cell proliferation inhibition (%)", "result": 53.7, "unit": "%"}, {"measurement": "inhibition at 25 µM", "setting": "Hela229; Hela229, 25 μM, 48 h, read-out: Cell proliferation inhibition (%)", "result": 68.7, "unit": "%"}, {"measurement": "inhibition at 50 µM", "setting": "Hela229; Hela229, 50 μM, 48 h, read-out: Cell proliferation inhibition (%)", "result": 83.3, "unit": "%"}, {"measurement": "inhibition at 100 µM", "setting": "Hela229; Hela229, 100 μM, 48 h, read-out: Cell proliferation inhibition (%)", "result": 88, "unit": "%"}]}, {"smiles": "O=C1O/C(=C(/C(=O)O)c2ccc(O)cc2)C(O)=C1c1ccc(O)c(O)c1", "note": "[Compound 18, xerocomic acid]", "values": [{"measurement": "viability at 2.5 µM", "setting": "SH-SY5Y cells [1]", "result": "78.2 ± 1.53", "unit": "%"}, {"measurement": "viability at 5 µM", "setting": "SH-SY5Y cells [1]", "result": "77.6 ± 1.97", "unit": "%"}, {"measurement": "viability at 10 µM", "setting": "SH-SY5Y cells [1]", "result": "80.3 ± 1.39", "unit": "%"}, {"measurement": "viability at 20 µM", "setting": "SH-SY5Y cells [1]", "result": "81.2 ± 1.79", "unit": "%"}, {"measurement": "viability at 40 µM", "setting": "SH-SY5Y cells [1]", "result": 90.5, "unit": "%"}]}, {"smiles": "O=C1O/C(=C(/C(=O)O)c2ccc(O)c(O)c2)C(O)=C1c1ccc(O)c(O)c1", "note": "[Compound 19, variegatic acid]", "values": [{"measurement": "viability at 2.5 µM", "setting": "SH-SY5Y cells [2]", "result": "56.4 ± 1.79", "unit": "%"}, {"measurement": "viability at 5 µM", "setting": "SH-SY5Y cells [2]", "result": "59.3 ± 2.94", "unit": "%"}, {"measurement": "viability at 10 µM", "setting": "SH-SY5Y cells [2]", "result": "63.7 ± 2.8", "unit": "%"}, {"measurement": "viability at 20 µM", "setting": "SH-SY5Y cells [2]", "result": 71.5, "unit": "%"}, {"measurement": "viability at 40 µM", "setting": "SH-SY5Y cells [2]", "result": 81.9, "unit": "%"}]}, {"smiles": "CC(C)[C@@H](C)/C=C/[C@@H](C)[C@H]1CC[C@H]2C3=C[C@@H](O)[C@@]4(O)C[C@@H](O)CC[C@]4(C)[C@H]3CC[C@]12C", "note": "[Compound 22, cerevisterol]", "values": [{"measurement": "IC50", "setting": "influenza virus A/H3N2; Influenza A virus, H3N2, MDCK", "result": 9.6, "unit": "µM"}, {"measurement": "inhibition at 1.56 µM", "setting": "influenza virus A/H3N2; [5]", "result": 0, "unit": "%"}, {"measurement": "inhibition at 3.13 µM", "setting": "influenza virus A/H3N2; [5]", "result": 0, "unit": "%"}, {"measurement": "inhibition at 6.25 µM", "setting": "influenza virus A/H3N2; [5]", "result": 0, "unit": "%"}, {"measurement": "inhibition at 12.5 µM", "setting": "influenza virus A/H3N2; [5]", "result": 75, "unit": "%"}, {"measurement": "inhibition at 25 µM", "setting": "influenza virus A/H3N2; [5]", "result": 75, "unit": "%"}, {"measurement": "EC50", "setting": "influenza virus A/H3N2", "result": 9.6, "unit": "µM"}, {"measurement": "EC50", "setting": "[3]", "result": "3.6 to 9.6", "unit": "µM"}, {"measurement": "EC50", "setting": "[4]", "result": 6.6, "unit": "µM"}, {"measurement": "IC50", "setting": "[4]", "result": 6.6, "unit": "µM"}, {"measurement": "inhibition at 1.56 µM", "setting": "[4]; read-out: CPE inhibition", "result": 0, "unit": "%"}, {"measurement": "inhibition at 3.13 µM", "setting": "[4]; read-out: CPE inhibition", "result": 0, "unit": "%"}, {"measurement": "inhibition at 6.25 µM", "setting": "[4]; read-out: CPE inhibition", "result": 10, "unit": "%"}, {"measurement": "inhibition at 12.5 µM", "setting": "[4]; read-out: CPE inhibition", "result": 75, "unit": "%"}, {"measurement": "inhibition at 25 µM", "setting": "[4]; read-out: CPE inhibition", "result": 75, "unit": "%"}]}, {"smiles": "CC(C)[C@@H](C)/C=C/[C@@H](C)[C@H]1CC[C@H]2C3=C(CC[C@]12C)[C@@]1(C)CC[C@H](O)C[C@@]12O[C@H]2[C@H]3O", "note": "[Compound 26, (22E,24R)-5α,6α-epoxy-ergosta-8,22-dien-3β,7α-diol]", "values": [{"measurement": "IC50", "setting": "influenza virus A/H3N2; Influenza A virus, H3N2, MDCK", "result": 4, "unit": "µM"}, {"measurement": "inhibition at 0.78 µM", "setting": "influenza virus A/H3N2; [5]", "result": 3.3, "unit": "%"}, {"measurement": "inhibition at 1.56 µM", "setting": "influenza virus A/H3N2; [5]", "result": 15, "unit": "%"}, {"measurement": "inhibition at 3.13 µM", "setting": "influenza virus A/H3N2; [5]", "result": 27.5, "unit": "%"}, {"measurement": "inhibition at 6.25 µM", "setting": "influenza virus A/H3N2; [5]", "result": 75, "unit": "%"}, {"measurement": "inhibition at 12.5 µM", "setting": "influenza virus A/H3N2; [5]", "result": 82.5, "unit": "%"}, {"measurement": "EC50", "setting": "influenza virus A/H3N2", "result": 4, "unit": "µM"}, {"measurement": "EC50", "setting": "[3]", "result": "3.6 to 9.6", "unit": "µM"}, {"measurement": "EC50", "setting": "[4]", "result": 3.6, "unit": "µM"}, {"measurement": "IC50", "setting": "[4]", "result": 3.6, "unit": "µM"}, {"measurement": "inhibition at 0.78 µM", "setting": "[4]; read-out: CPE inhibition", "result": 6.6, "unit": "%"}, {"measurement": "inhibition at 1.56 µM", "setting": "[4]; read-out: CPE inhibition", "result": 15, "unit": "%"}, {"measurement": "inhibition at 3.13 µM", "setting": "[4]; read-out: CPE inhibition", "result": 25, "unit": "%"}, {"measurement": "inhibition at 6.25 µM", "setting": "[4]; read-out: CPE inhibition", "result": 75, "unit": "%"}, {"measurement": "inhibition at 12.5 µM", "setting": "[4]; read-out: CPE inhibition", "result": 75, "unit": "%"}]}]}
